Consider five compounds from paper PMC4176390 (Journal of Natural Products, 2014).

The subject of data set [1] is brevenal binding site. Description: Fluorescent-ligand competition. More on the design: species or system rat. To be noted: for displacement of BODIPY FL-brevenal from synaptosomes (in words): BODIPY FL-brevenal 10 nM, competitors 1 pM to 10 μM.
Data set [2] deals with brevenal binding site. Description: Radioligand. The settings on record: read-out: Ki: radioligand assay; [3H]-brevenol, rat brain synaptosomes, mean ± SEM.
Data set [3] concerns fish. To be noted: cited from earlier work.
Data set [4] has as its system voltage-sensitive sodium channels (VSSCs). The settings on record: cited from earlier work.
Data set [5] has as its system VSSCs. The settings on record: cited from earlier work.
Data set [6] deals with sheep. The settings on record: cited from earlier work.

As for `CCN1C[C@]2(COC)[C@H](O)C[C@H](OC)[C@@]34[C@@H]5C[C@@]6(O)[C@H](OC(=O)c7ccccc7)[C@@H]5[C@@](OC(C)=O)([C@@H]([C@H](OC)[C@H]23)[C@@H]14)[C@@H](O)[C@@H]6OC` [aconitine], in data set [1], the “displacement of BODIPY FL-brevenal from synaptosomes (in words)” value (shortened to “displacement of BODIPY FL-brevenal”) was “none of these ligands were able to displace”.
Regarding `C=C/C=C\CC[C@H]1O[C@H]2CC[C@@]3(C)O[C@H]4[C@@H](O)C[C@@]5(C)O[C@@H](CC/C=C(C)/C(C)=C/C=O)[C@@H](C)C[C@H]5O[C@@H]4C[C@@H]3O[C@@H]2CC[C@@]1(C)O` [brevenal], the Ki (as a rule, the equilibrium dissociation constant of an inhibitor or competing ligand from its target) amounted to 149 ± 30 nM in data set [2] and 170 ± 31 nM in data set [1] (read-out: Ki: fluorescent-ligand assay, BODIPY FL-brevenal 10 nM as ligand, rat brain synaptosomes, mean ± SEM). Moreover, in data set [1], the “displacement of BODIPY FL-brevenal” value is “competed for binding to synaptosomes”. Also, the toxicity to fish entry in data set [3] was “nontoxic at micromolar concentrations”. Besides, the “displacement of tritiated PbTx from synaptosomes” value in data set [4] is “competitively displace”. Also, in data set [5], the “effect on VSSCs in patch-clamp experiments” value is listed as “does not appear to have any effect”. Further, in data set [6], the “mucociliary transport in sheep” value is reported as “increases mucociliary transport”.
With `CC1(C)[C@H](C(=O)O[C@H](C#N)c2cccc(Oc3ccccc3)c2)[C@@H]1C=C(Br)Br` [deltamethrin], the “displacement of BODIPY FL-brevenal” value in data set [1] is “none of these ligands were able to displace”.
Regarding `COc1ccc(C(=O)O[C@H]2CC[C@@]3(C)[C@@H]4CC[C@H]5[C@]6(O)C[C@H](O)[C@@]7(O)[C@@H](CN8C[C@@H](C)CC[C@H]8[C@@]7(C)O)[C@]6(O)C[C@@]53O[C@]24O)cc1OC` [veratridine], the “displacement of BODIPY FL-brevenal” value in data set [1] is “none of these ligands were able to displace”.
As to PbTx-9, in data set [1], the “displacement of BODIPY FL-brevenal” value is on record as “None of the naturally occurring PbTx analogues were able to displace”.
